Structures can show the parent of a compound that is named as a salt.
target: T1, human α7 nAChR (Homo sapiens, UniProt P36544); test: α7 nAChR FLIPR (Fluorometric Imaging Plate Reader) Ca2+ assay, agonist EC50; type: cell-based; conditions: GH4C1 cells stably transfected with human α7 nAChR; Fluo-4 Ca2+ fluorescence; Examples 194 to 205 tested as the HCl salt; read-out: pEC50 value (negative logarithm of the agonist EC50) (converted)
T1 construct: host or cells: GH4C1 cells (pituitary tumor, immortalized cell line)
Protocol: α7 nAChR FLIPR® (Fluorometric Imaging Plate Reader) Assay
Function of the heterologous expressed α7 nAChR was assessed by a FLIPR-Ca^2+ assay. Since nAChRs are non-selective cation channels with high permeability to Ca^2+, these studies were carried out by measuring changes of intracellular Ca^2+ concentration using the Ca^2+-chelating fluorescent dye Fluo-4 and FLIPR® (Fluorometric Imaging Plate Reader) technology.
GH4C1cells (pituitary tumor, immortalized cell line) stably transfected with human α7 nAChR (Biocat ID 96986), were thawed, suspended in growth medium (Ham's Nutrient Mixture F10—Ham's F10, Invitrogen 31550-023, 15% Horse Serum heat inactivated—Invitrogen 26050-047, 2.5% Foetal Bovine Serum—FBS, Gibco 10500-064, 200 μg/ml Hygromycin B—Invitrogen, 10687-010, 10 mg/L Phenol Red—Sigma, P 0290, 1 mM Glutamine—Invitrogen, 25030-024) and plated in 500 cm^2 Triple Flask.
Cells were then incubated at 30° C., 5% CO2 for 72 hours.
On the day of the experiment, cells were washed twice with Assay Buffer (AB) (145 mM NaCl, 5 mM KCl, 1 mM MgCl2, 2 mM CaCl2, 20 mM HEPES, 5.5 mM Glucose pH=7.3) containing 2.5 mM Probenecid. Changes in the intracellular Ca^2+ content of stably transfected cells were measured using the Ca^2+ chelating dye Fluo-4 (Tef Labs 0152) in conjunction with a FLIPR® (Molecular Devices). The cell permeant dye Fluo-4 was prepared to a concentration of 1 mM in 100% DMSO and 10% Pluronic acid. The dye was then diluted with AB to a final concentration of 2 μM and placed on the cells. After 45-60 minutes dye loading incubation at 37° C., the unincorporated dye was removed from the cells by washing (80 μL, 3 times) with AB, and a final volume of 30 μL/well of AB was left in each well.
Plates containing test compounds (dissolved in 100% DMSO at 2 mM and serially diluted with DMSO) were copied into “daughter” plates (1 μL/well dispensation). Just prior to starting the assay, the “daughter” plate was diluted with 50 μL/well of AB.
The plates were then placed in the FLIPR®, and cell fluorescence was determined before drug addition (30 seconds) and monitored (excitation 488 nm, emission 510-580 nm) immediately following exposure to compounds. Maximum fluorescence values were recorded and fitted for agonist EC50 calculations.
The results are expressed as pEC50 values. A pEC50 is the negative logarithm of the agonist EC50 calculation as determined in the α7 nAChR FLIPR® assay. […] Variations in pEC50 may arise between tests.

T1 sequence (P36544 23-502): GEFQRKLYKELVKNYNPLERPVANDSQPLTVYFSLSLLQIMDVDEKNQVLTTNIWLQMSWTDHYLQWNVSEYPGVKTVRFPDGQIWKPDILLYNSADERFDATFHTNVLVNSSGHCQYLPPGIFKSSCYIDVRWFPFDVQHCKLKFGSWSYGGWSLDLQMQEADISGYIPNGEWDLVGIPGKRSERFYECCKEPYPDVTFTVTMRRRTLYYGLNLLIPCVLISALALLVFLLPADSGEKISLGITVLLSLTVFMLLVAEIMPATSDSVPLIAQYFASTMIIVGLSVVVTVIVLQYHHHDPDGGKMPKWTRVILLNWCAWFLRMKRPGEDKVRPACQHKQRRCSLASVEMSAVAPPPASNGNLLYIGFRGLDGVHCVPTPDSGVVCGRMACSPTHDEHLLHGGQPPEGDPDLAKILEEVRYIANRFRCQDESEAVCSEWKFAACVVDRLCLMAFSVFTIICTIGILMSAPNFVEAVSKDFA

Structure (SMILES)	EC50
CCN(CC)CCCNc1nnc(-c2ccc(NC(=O)c3ccccc3F)cc2OC)o1 [Example 2, N-[4-(5-{[3-(Diethylamino)propyl]amino}-1,3,4-oxadiazol-2-yl)-3-(methyloxy)phenyl]-2-fluorobenzamidehydrochloride]	≤ 1 µM
O=C(Nc1ccc(-c2nnc(NCCCN3CCCCC3)o2)cc1)c1cccs1 [Example 8, N-[4-(5-{[3-(1-Piperidinyl)propyl]amino}-1,3,4-oxadiazol-2-yl)phenyl]-2-thiophenecarboxamidehydrochloride]	≤ 1 µM
O=C(Nc1ccc(-c2nnc(NCCCN3CCCCC3)o2)cc1)c1ccsc1 [Example 10, N-[4-(5-{[3-(1-Piperidinyl)propyl]amino}-1,3,4-oxadiazol-2-yl)phenyl]-3-thiophenecarboxamidehydrochloride]	≤ 1 µM
O=C(Nc1ccc(-c2nnc(NCCCN3CCCCC3)o2)cc1)c1cccnc1 [Example 13, N-[4-(5-{[3-(1-Piperidinyl)propyl]amino}-1,3,4-oxadiazol-2-yl)phenyl]-3-pyridinecarboxamidehydrochloride]	≤ 1 µM
O=C(Nc1ccc(-c2nnc(NCCCN3CCCCC3)o2)cc1)c1cccc(F)c1F [Example 16, 2,3-Difluoro-N-[4-(5-{[3-(1-piperidinyl)propyl]amino}-1,3,4-oxadiazol-2-yl)phenyl]benzamidehydrochloride]	≤ 1 µM
O=C(Nc1ccc(-c2nnc(NCCCN3CCCCC3)o2)cc1)c1ccccn1 [Example 17, N-[4-(5-{[3-(1-Piperidinyl)propyl]amino}-1,3,4-oxadiazol-2-yl)phenyl]-2-pyridinecarboxamidehydrochloride]	≤ 1 µM
O=C(Nc1ccc(-c2nnc(NCCCN3CCCCC3)o2)cc1)c1ccc(Cl)cc1 [Example 18, 4-Chloro-N-[4-(5-{[3-(1-piperidinyl)propyl]amino}-1,3,4-oxadiazol-2-yl)phenyl]benzamidehydrochloride]	≤ 1 µM
O=C(Nc1ccc(-c2nnc(NCCCCN3CCC(F)CC3)o2)c(F)c1)c1ccccc1F [Example 26, 2-Fluoro-N-[3-fluoro-4-(5-{[4-(4-fluoro-1-piperidinyl)butyl]amino}-1,3,4-oxadiazol-2-yl)phenyl]benzamide]	≤ 0.1 µM
COc1cc(NC(=O)C2CCCCC2)ccc1-c1nnc(NCCCN2CCCCC2)o1 [Example 28, N-[3-(methyloxy)-4-(5-{[3-(1-piperidinyl)propyl]amino}-1,3,4-oxadiazol-2-yl)phenyl]cyclohexanecarboxamide]	≤ 1 µM
COc1cc(NC(=O)c2ccccc2)ccc1-c1nnc(NCCCCN2CCCCC2)o1 [Example 32, N-[3-(methyloxy)-4-(5-{[4-(1-piperidinyl)butyl]amino}-1,3,4-oxadiazol-2-yl)phenyl]benzamide]	≤ 0.1 µM
O=C(Nc1ccc(-c2nnc(NCCCCN3CCCCC3)o2)c(F)c1)c1ccccc1F [Example 46, 2-fluoro-N-[3-fluoro-4-(5-{[4-(1-piperidinyl)butyl]amino}-1,3,4-oxadiazol-2-yl)phenyl]benzamide]	≤ 0.1 µM
O=C(Nc1ccc(-c2nnc(NCCCN3CCCC3)o2)c(F)c1)c1ccccc1F [Example 47, 2-fluoro-N-[3-fluoro-4-(5-{[3-(1-pyrrolidinyl)propyl]amino}-1,3,4-oxadiazol-2-yl)phenyl]benzamide]	≤ 1 µM
CCN(CC)CCCNc1nnc(-c2ccc(NC(=O)c3ccccc3F)cc2F)o1 [Example 50, N-[4-(5-{[3-(diethylamino)propyl]amino}-1,3,4-oxadiazol-2-yl)-3-fluorophenyl]-2-fluorobenzamide]	≤ 1 µM
O=C(Nc1ccc(-c2nnc(NCCCCN3CCCC3)o2)c(F)c1)C1CCCCC1 [Example 55, N-[3-fluoro-4-(5-{[4-(1-pyrrolidinyl)butyl]amino}-1,3,4-oxadiazol-2-yl)phenyl]cyclohexanecarboxamide]	≤ 0.1 µM
O=C(Nc1ccc(-c2nnc(NCCCN3CCCC3)o2)c(F)c1)C1CCCCC1 [Example 56, N-[3-fluoro-4-(5-{[3-(1-pyrrolidinyl)propyl]amino}-1,3,4-oxadiazol-2-yl)phenyl]cyclohexanecarboxamide]	≤ 1 µM
O=C(Nc1ccc(-c2nnc(NCCCCN3CCOCC3)o2)c(F)c1)C1CCCCC1 [Example 58, N-[3-fluoro-4-(5-{[4-(4-morpholinyl)butyl]amino}-1,3,4-oxadiazol-2-yl)phenyl]cyclohexanecarboxamide]	≤ 1 µM
CCN(CC)CCCNc1nnc(-c2ccc(NC(=O)C3CCCCC3)cc2F)o1 [Example 59, N-[4-(5-{[3-(diethylamino)propyl]amino}-1,3,4-oxadiazol-2-yl)-3-fluorophenyl]cyclohexanecarboxamide]	≤ 1 µM
CCN(CC)CCCCNc1nnc(-c2ccc(NC(=O)C3CCCCC3)cc2F)o1 [Example 60, N-[4-(5-{[4-(diethylamino)butyl]amino}-1,3,4-oxadiazol-2-yl)-3-fluorophenyl]cyclohexanecarboxamide]	≤ 1 µM
O=C(Nc1ccc(-c2nnc(NCCCN3CCCCC3)o2)c(C(F)(F)F)c1)C1CCCCC1 [Example 61, N-[4-(5-{[3-(1-piperidinyl)propyl]amino}-1,3,4-oxadiazol-2-yl)-3-(trifluoromethyl)phenyl]cyclohexanecarboxamide]	≤ 1 µM
O=C(Nc1ccc(-c2nnc(NCCCCN3CCOCC3)o2)c(C(F)(F)F)c1)C1CCCCC1 [Example 66, N-[4-(5-{[4-(4-morpholinyl)butyl]amino}-1,3,4-oxadiazol-2-yl)-3-(trifluoromethyl)phenyl]cyclohexanecarboxamide]	≤ 1 µM

The remaining lines, values ahead:

EC50	Structure (SMILES)
≤ 1 µM	O=C(Nc1ccc(-c2nnc(NCCCN3CCCCC3)o2)cc1)c1cccc(Cl)c1 [Example 12, 3-Chloro-N-[4-(5-{[3-(1-piperidinyl)propyl]amino}-1,3,4-oxadiazol-2-yl)phenyl]benzamidehydrochloride]
≤ 0.1 µM	O=C(Nc1ccc(-c2nnc(NCCCCN3CCCC3)o2)c(F)c1)c1ccccc1F [Example 48, 2-fluoro-N-[3-fluoro-4-(5-{[4-(1-pyrrolidinyl)butyl]amino}-1,3,4-oxadiazol-2-yl)phenyl]benzamide]
≤ 1 µM	CCN(CC)CCCCNc1nnc(-c2ccc(NC(=O)c3ccccc3F)cc2F)o1 [Example 51, N-[4-(5-{[4-(diethylamino)butyl]amino}-1,3,4-oxadiazol-2-yl)-3-fluorophenyl]-2-fluorobenzamide]
≤ 0.1 µM	CCN(CC)CCCCNc1nnc(-c2ccc(NC(=O)c3ccccc3F)cc2OC)o1 [Example 52, N-[4-(5-{[4-(diethylamino)butyl]amino}-1,3,4-oxadiazol-2-yl)-3-(methyloxy)phenyl]-2-fluorobenzamide]
≤ 1 µM	O=C(Nc1ccc(-c2nnc(NCCCN3CCCCC3)o2)c(F)c1)C1CCCCC1 [Example 53, N-[3-fluoro-4-(5-{[3-(1-piperidinyl)propyl]amino}-1,3,4-oxadiazol-2-yl)phenyl]cyclohexanecarboxamide]
≤ 0.1 µM	O=C(Nc1ccc(-c2nnc(NCCCCN3CCCCC3)o2)c(F)c1)C1CCCCC1 [Example 54, N-[3-fluoro-4-(5-{[4-(1-piperidinyl)butyl]amino}-1,3,4-oxadiazol-2-yl)phenyl]cyclohexanecarboxamide]
≤ 0.1 µM	O=C(Nc1ccc(-c2nnc(NCCCCN3CCCCC3)o2)c(C(F)(F)F)c1)C1CCCCC1 [Example 62, N-[4-(5-{[4-(1-piperidinyl)butyl]amino}-1,3,4-oxadiazol-2-yl)-3-(trifluoromethyl)phenyl]cyclohexanecarboxamide]
≤ 1 µM	O=C(Nc1ccc(-c2nnc(NCCCN3CCCC3)o2)c(C(F)(F)F)c1)C1CCCCC1 [Example 63, N-[4-(5-{[3-(1-pyrrolidinyl)propyl]amino}-1,3,4-oxadiazol-2-yl)-3-(trifluoromethyl)phenyl]cyclohexanecarboxamide]
≤ 1 µM	O=C(Nc1ccc(-c2nnc(NCCCCN3CCCC3)o2)c(C(F)(F)F)c1)C1CCCCC1 [Example 64, N-[4-(5-{[4-(1-pyrrolidinyl)butyl]amino}-1,3,4-oxadiazol-2-yl)-3-(trifiuoromethyl)phenyl]cyclohexanecarboxamide]

same assay, conditions: alpha 7 assay described in the Examples

activity in the alpha 7 assay	Structure (SMILES)
not found to have activity	CC(C)(C)C(=O)Nc1ccc(-c2nnc(NCCCN3CCCCC3)o2)cc1 [2,2-dimethyl-N-[4-(5-{[3-(1-piperidinyl)propyl]amino}-1,3,4-oxadiazol-2-yl)phenyl]propanamide]

Source: patent US20090105217A1, “2-PHENYL-5-AMINO-1,3,4-OXADIAZOLES AND THEIR USE AS NICOTINIC ACETYLCHOLINE RECEPTOR LIGANDS” (priority 2007, published 2009)
